Patent publication US20220313698A1, “MODULATORS OF CYSTIC FIBROSIS TRANSMEMBRANE CONDUCTANCE REGULATOR” (Vertex Pharmaceuticals Incorporated, priority 2019, published 2022)
“And” between values parts separate entries of the source, which are not always exact repeats. Equal values may be shown once. Read-outs that look alike come from different tables or passages of the source.

What was measured:
[1] = snar bond, 15-membered ring
[2] = target: T1, CFTR-mediated chloride transport (Homo sapiens, UniProt P13569); assay: Corrector Assay B - membrane potential dye assay (enteroid cells);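 further: methyl oxonol membrane potential fluorescence followed over 15 min after switching to chloride-free buffer with forskolin, 100 µM IBMX and ivacaftor, in presence of CaCC blockers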
[3] = target: T1, CFTR-mediated chloride transport; assay: Corrector Assay A - membrane potential dye assay (enteroid cells)

CC1(C)C[C@@H]2CCCN(c3ccccc3)c3cccc(n3)S(=O)(=O)NC(=O)c3ccc(-n4ccc(OCCC5(C(F)(F)F)CC5)n4)nc3N1C2 [Compound 395, (14S)-12,12-dimethyl-18-phenyl-8-(3-{2-[1-(trifluoromethyl)cyclopropyl]ethoxy}-1H-pyrazol-1-yl)-2λ^6-thia-3,9,11,18,23-pentaazatetracyclo[17.3.1.111,14.05,10]tetracosa-1(23),5(10),6,8,19,21-hexaene-2,2,4-trione]
ring closure, isolated yield ([1]; from CC1(C)C[C@H](CCCN(c2ccccc2)c2cccc(S(=O)(=O)NC(=O)c3ccc(-n4ccc(OCCC5(C(F)(F)F)CC5)n4)nc3Cl)n2)CN1, K2CO3/3A MS, DMSO, 19.9 mM, 155.0 °C, 16.0 h, 2 steps): 46% | Corrector Assay B % activity ([2]; % of chloride transport of triple combination control (3 μM Compound A + 3 μM tezacaftor + 300 nM ivacaftor)): ++ (++ is 30-60%) | EC50 ([2]; read-out: Corrector Assay B EC50, human intestinal enteroid cells, 18-24 h incubation, acute 10 μM forskolin + 300 nM ivacaftor): < 1000 nM

CC1(C)CC(C2CC[C@@H]3CN(c4nc(C(C)(C)C)ccc4C(=O)NS(=O)(=O)c4cccc(n4)N2)C(C)(C)C3)CC(C)(C)O1 (mixture of isomers)
ring closure, isolated yield ([1]; from 6-tert-Butyl-N-[[6-[[3-[(3S)-5,5-dimethylpyrrolidin-3-yl]-1-(2,2,6,6-tetramethyltetrahydropyran-4-yl)propyl]amino]-2-pyridyl]sulfonyl]-2-fluoro-pyridine-3-carboxamide (Trifluoroacetic Acid (1)), K2CO3, DMF, 80.7 mM, 140.0 °C): 48%

CC(C)(C)c1ccc2c(n1)N1C[C@@H](CCC(c3cc(Br)ccn3)Nc3cccc(n3)S(=O)(=O)NC2=O)CC1(C)C (stereo partly drawn)
ring closure, isolated yield ([1]; from CC(C)(C)OC(=O)N1C[C@@H](CCC(Nc2cccc(S(=O)(=O)NC(=O)c3ccc(C(C)(C)C)nc3F)n2)c2cc(Br)ccn2)CC1(C)C, K2CO3, NMP, 77.8 mM, 150.0 °C, 2 steps): 21%

CC(C)(C)CC1CNc2cccc(n2)S(=O)(=O)NC(=O)c2ccc(-n3ccc(OCCC4C5(CC5)C45CC5)n3)nc2N2C[C@@H](C1)CC2(C)C (stereo partly drawn)
ring closure, isolated yield ([1]; from CC(C)(C)CC(CNc1cccc(S(=O)(=O)NC(=O)c2ccc(-n3ccc(OCCC4C5(CC5)C45CC5)n3)nc2Cl)n1)C[C@@H]1CNC(C)(C)C1, K2CO3, DMSO, 73.6 mM, 120.0 °C, 20.0 h): 44%

CC1(C)C[C@@H]2CCNCc3cccc(n3)S(=O)(=O)NC(=O)c3ccc(-n4ccc(OCCC5C6(CC6)C56CC6)n4)nc3N1C2
ring closure, isolated yield ([1]; from CC1(C)C[C@H](CCNCc2cccc(S(=O)(=O)NC(=O)c3ccc(-n4ccc(OCCC5C6(CC6)C56CC6)n4)nc3Cl)n2)CN1, K2CO3, DMSO, 57.3 mM, 120.0 °C, 24.0 h): 3%

CC(C)(C)c1ccnc(C2CC[C@H]3CCCN(C3)c3nc(C(C)(C)C)ccc3C(=O)NS(=O)(=O)c3cccc(n3)N2)c1 (stereo partly drawn)
ring closure, isolated yield ([1]; from CC(C)(C)c1ccnc(C(CC[C@H]2CCCNC2)Nc2cccc(S(=O)(=O)NC(=O)c3ccc(C(C)(C)C)nc3F)n2)c1, K2CO3, DMSO, 69.4 mM, 120.0 °C, 24.0 h): 17%

CC1(C)C[C@@H]2CCC(c3ccccn3)Nc3cccc(n3)S(=O)(=O)NC(=O)c3ccc(-n4ccc(OCCC5(C(F)(F)F)CC5)n4)nc3N1C2 (stereo partly drawn)
ring closure, isolated yield ([1]; from CC1(C)C[C@H](CCC(Nc2cccc(S(=O)(=O)NC(=O)c3ccc(-n4ccc(OCCC5(C(F)(F)F)CC5)n4)nc3Cl)n2)c2ccccn2)CN1, K2CO3/3A MS, DMSO, 26.1 mM, 155.0 °C, 18.0 h, 2 steps): 38%

CC(C)(C)c1ncc2c(n1)N1C[C@@H](CCCNc3cccc(n3)S(=O)(=O)NC2=O)CC1(C)C [Compound 11, (14S)-8-tert-butyl-12,12-dimethyl-2λ^6-thia-3,7,9,11,18,23-hexaazatetracyclo[17.3.1.111,14.05,10]tetracosa-1(22),5,7,9,19(23),20-hexaene-2,2,4-trione]
ring closure, isolated yield ([1]; from 2-tert-Butyl-4-chloro-N-[[6-[3-[(3S)-5,5-dimethylpyrrolidin-3-yl]propylamino]-2-pyridyl]sulfonyl]pyrimidine-5-carboxamide (dihydrochloride salt), K2CO3/CsF, NMP, 123.1 mM, 150.0 °C): 13% | Corrector Assay A % activity ([3]; % of chloride transport of triple combination control (1 μM (14S)-dispiro macrocycle + 3 μM tezacaftor + 300 nM ivacaftor)): ++ (++ is 30-60%) | EC50 ([3]; read-out: Corrector Assay A EC50, human intestinal enteroid cells, 18-24 h incubation, acute 10 μM forskolin + 300 nM ivacaftor): 1000 to 3000 nM

CC1(C)C[C@@H]2CCC(c3cncnc3)Nc3cccc(n3)S(=O)(=O)NC(=O)c3ccc(-n4ccc(OCCC5(C(F)(F)F)CC5)n4)nc3N1C2 (stereo partly drawn)
ring closure, isolated yield ([1]; from CC1(C)C[C@H](CCC(Nc2cccc(S(=O)(=O)NC(=O)c3ccc(-n4ccc(OCCC5(C(F)(F)F)CC5)n4)nc3Cl)n2)c2cncnc2)CN1, K2CO3/3A MS, DMSO, 49.2 mM, 155.0 °C, 18.0 h): 28%

CC(C)(C)c1ccnc(C2CC[C@@H]3CN(c4cc(C(C)(C)C)c(Br)cc4C(=O)NS(=O)(=O)c4cccc(n4)N2)C(C)(C)C3)c1 (stereo partly drawn)
ring closure, isolated yield ([1]; from CC1(C)C[C@H](CCC(Nc2cccc(S(=O)(=O)NC(=O)c3cc(Br)c(C(C)(C)C)cc3F)n2)c2cc(C(C)(C)C)ccn2)CN1, Cs2CO3, DMSO, 58.3 mM, 150.0 °C, 96.0 h): 17%

CC(C)(C)c1ccnc(C2CC[C@@H]3CN(c4nc(-n5ccc(OCCC6C7(CC7)C67CC7)n5)ccc4C(=O)NS(=O)(=O)c4cccc(n4)N2)C(C)(C)C3)c1 (stereo partly drawn)
ring closure, isolated yield ([1]; from CC(C)(C)OC(=O)N1C[C@@H](CCC(Nc2cccc(S(=O)(=O)NC(=O)c3ccc(-n4ccc(OCCC5C6(CC6)C56CC6)n4)nc3Cl)n2)c2cc(C(C)(C)C)ccn2)CC1(C)C, K2CO3, NMP, 48.8 mM, 140.0 °C, 2 steps): 44.5%

C=CC1CC[C@@H]2CN(c3nc(C(C)(C)C)ccc3C(=O)NS(=O)(=O)c3cccc(n3)N1)C(C)(C)C2 (stereo partly drawn)
ring closure, isolated yield ([1]; from C=CC(CC[C@@H]1CN(C(=O)OC(C)(C)C)C(C)(C)C1)Nc1cccc(S(=O)(=O)NC(=O)c2ccc(C(C)(C)C)nc2F)n1, K2CO3, NMP, 159.0 mM, 150.0 °C, 2 steps): 22% and 25%

CC1(C)C[C@@H]2CCCNc3cccc(n3)S(=O)(=O)NC(=O)c3ccc(-n4ccc(OCCC5C6(CC6)C56CC6)n4)cc3N1C2
ring closure, isolated yield ([1]; from CC1(C)C[C@H](CCCNc2cccc(S(=O)(=O)NC(=O)c3ccc(-n4ccc(OCCC5C6(CC6)C56CC6)n4)cc3F)n2)CN1, Cs2CO3, DMSO, 67.0 mM, 150.0 °C, 96.0 h): 29%

CC(C)(C)CC1CNc2cccc(n2)S(=O)(=O)NC(=O)c2ccc(C(C)(C)C)nc2N2C[C@@H](C1)CC2(C)C (stereo partly drawn)
ring closure, isolated yield ([1]; from CC(C)(C)CC(CNc1cccc(S(=O)(=O)NC(=O)c2ccc(C(C)(C)C)nc2F)n1)C[C@@H]1CNC(C)(C)C1, K2CO3, DMSO, 94.7 mM, 120.0 °C, 24.0 h): 27%
